Assay results reported in patent publication US6294568A, “5-arylpyrrole derivatives” (priority 1997, dated 2001).

Assays:
CaCo-2 cells = test: Apoptosis Induction Test in CaCo-2 Cells; format: cell-based; conditions: 24 hours, propidium iodide staining, fluorescence microscope
Description: CaCo-2 cells were adjusted in 10% FBS/DMEM/NEAA to 1.0×10^5 cells/ml concentration and then pipetted into a 6 well plate in an amount of 3 ml/well. The cells were cultured under the conditions of at 37° C. in 5% CO2 atmosphere for 24 hours to allow the cell adhesion. Only the medium solution (0.1% ethanol) was exchanged in the control group, and the compound of the invention (Preparation Example 1) group was transferred to culture mediums containing the compound adjusted to each of the specified concentrations, then the cells were cultured under the condition of at 37° C. in 5% CO2 atmosphere for 24 hours. Then the culture medium and the adhesive cells separated of the adhesion by trypsin were collected and centrifuged at 1000 rpm for 5 minutes to remove the supernatant. The cells were washed with PBS(-) and then 20 μl of 90% ethanol/0.5% triton×100/10mM EDTA/10mM Tris-HCl (pH7.4) and 5 μl of propidium iodide (1 μg/ml) were added thereto to stain the nucleuses. A drop of the stained cell solution was placed on a preparation glass to be examined by a fluorescence microscope at B range.

carrageenan footedema = test: Carrageenan Footedema Suppression Test; format: in vivo, SD rats; conditions: oral; paw volume three hours after carrageenan administration
[1] = tested on: pain threshold of brewer's yeast inflamed hind paw; test: Analgesic Action Test (Randall et al.); format: in vivo, SD rats; conditions: 3 mg/kg oral, 3 hours
Description: SD rats (6 rats per group) fasted overnight were employed for the test. After the measurement of pain threshold values of the left and right hind paws twice using an analgesimeter, the rats were injected subcutaneously with 0.1 ml of 20% brewer's yeast solution at the plantar area of the right hind paw to elicit inflammation. Two hours after the elicitation of inflammation, the pain threshold values of the left and right hind paws were measured and, immediately after the measurement, the test samples were administered orally to the rats. Three hours after the administration, the pain threshold values of the left and right hind paws were measured. […] The dosage amount of each of the test samples was 3 mg/kg.
Pain threshold value rising rate (%)=((pain threshold value of 3 hours after drug administration-pain threshold value of 2 hours after yeast administration)/(pain threshold value before yeast administration-pain threshold value of 2 hours after yeast administration))×100
Pain threshold value fluctuation rate (%)=(1 -(pain threshold value of 3 hours after drug administration/pain threshold value of 2 hours after […]

Sarcoma 180 solid tumor = test: Antitumor Effect with respect to Sarcoma 180 Solid Tumor Mouse; format: in vivo, ICR mice; conditions: 10 mg/kg in abdominal cavity, 10 days; day 11
Description: The antitumor effect test was conducted according to the method of the U. S. National Cancer Institute (NCI) (Cancer Chemotherapy Reports part 3, Vol. 3, 1 (1978)). Cell suspension of Sarcoma 180 cells (mouse sarcoma virus) which was employed as the tumor cell strain for transplant was prepared by diluting the cells in the Hank's solution at 2×10^7 cells/ml concentration ([…]), and ICR mice (10 mice per group) aged 5 weeks were injected subcutaneously with 0.2 ml of the cell suspension at the region of the back. Setting the day of the tumor transplantation as day 0. the mice were administered in the abdominal cavity with the compounds of the invention (Preparation Examples 1 and 37), 5-fluorouracyl, and the solution as the control for 10 days consecutively from day 1. On day 11, the mice were sacrificed, and portions of the solid tumor were removed so that weights thereof were measured. The dosage of each of the test samples was 10 mg/kg.

Human COX-1 = target: T1, Human COX-1 (Homo sapiens, UniProt P23219); test: Human COX-1 Inhibitory Activity Test (TXB2 in blood); format: cell-based; conditions: IC50 from Hill Plot
T1 construct: endogenous in cells; host or cells: whole blood of a healthy human donor (own knowledge: TXB2 of clotting blood comes from platelet COX-1)
T1 sequence (P23219 24-599): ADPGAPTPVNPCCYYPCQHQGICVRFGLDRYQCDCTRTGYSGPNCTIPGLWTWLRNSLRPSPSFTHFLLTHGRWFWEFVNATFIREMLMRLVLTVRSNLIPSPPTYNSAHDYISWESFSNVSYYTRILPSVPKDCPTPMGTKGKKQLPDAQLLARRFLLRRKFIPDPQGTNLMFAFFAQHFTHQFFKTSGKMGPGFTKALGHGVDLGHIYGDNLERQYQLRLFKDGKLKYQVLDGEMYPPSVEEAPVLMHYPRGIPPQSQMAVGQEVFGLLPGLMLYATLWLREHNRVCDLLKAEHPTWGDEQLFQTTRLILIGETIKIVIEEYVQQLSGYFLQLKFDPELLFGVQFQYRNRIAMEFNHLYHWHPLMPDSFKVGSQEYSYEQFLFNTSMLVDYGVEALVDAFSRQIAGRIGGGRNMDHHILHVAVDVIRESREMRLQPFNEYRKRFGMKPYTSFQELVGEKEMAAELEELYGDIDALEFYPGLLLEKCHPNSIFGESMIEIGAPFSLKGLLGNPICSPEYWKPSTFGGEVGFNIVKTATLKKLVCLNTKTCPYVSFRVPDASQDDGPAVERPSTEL

Cc1cc(-c2ccc(F)cc2)c(-c2ccc(S(C)(=O)=O)cc2)[nH]1 [Preparation Example 1, 4-(4-fluorophenyl)-2-methyl-5-(4-methylsulfonylphenyl)-1H-pyrrole]
cell apoptosis (CaCo-2 cells): cell apoptosis caused by the compound of the invention was observed
Edematization Suppression rate (carrageenan footedema): 35.5%
Pain Threshold Value Fluctuation Rate ([1]; Left Hind Paw (non-inflammatory paw)): 2.47%
Pain Threshold Value Rising Rate ([1]; Right Hind Paw (inflammatory paw)): 33.3%
Tumor Weight (Sarcoma 180 solid tumor): 0.726 g
IC50 (Human COX-1): 649 µM
